Measured values reported in patent US20090022675A1, “ESTERS WITH WARMING PROPERTIES” (priority 2007, published 2009).

Assay: Warming properties: rise in temperature on mixing with water (heat of solution)
Format: physicochemical
Conditions: mixed with water; Hest G-18-O maximum when about 60% by weight is used
Description: When Hest G-18-O is mixed with water at ambient temperature, there is a rise in temperature. The rise in temperature ranges from about 5 degrees C. to about 15 degrees C.; it also ranges from about 8 degrees C. to about 12 degrees C. This rise in temperature is about 2-3 times more than that obtained with the same weight of glycerine (FIG. 1) or propylene glycol. The temperature rise reaches a maximum of about 12 degrees C. when about 60% by weight of Hest G-18-O is used. This compares to a maximum of only about 5 degrees C. for glycerine or propylene glycol.
The maximum amount of heat (though not the greatest rise in temperature) is obtained when the Hest G-18-O is dissolved in a large excess of water. If the Hest G-18-O, glycerine or propylene glycol is not anhydrous, some of its heat of solution will already have been dissipated. Correspondingly, smaller amounts of heat will be produced by further dilution.

Row | Compound | maximum temperature rise
1 | CC(O)CO (centres unmarked) [propylene glycol] | about 5 degrees C.
2 | OCC(O)CO [glycerine] | about 5 degrees C.
